Data on 26 compounds can be found in ChEMBL document CHEMBL1156004, “Pyrazolopyrimidines and pyrazolotriazines with potent activity against herpesviruses” (Bioorg Med Chem Lett, 2009).

Molecules are shown by their SMILES.

A short description of data set [1]: Antiviral activity against HSV1 SC16 infected in african green monkey Vero cells by hybrid capture method. The class given is functional, cell-based, Herpes simplex virus (type 1 / strain SC16). Particulars: Human alphaherpesvirus 1, Vero.
Data set [2] can be described thus: Cytotoxicity against african green monkey Vero cells. Format: cell-based. Particulars: chlorocebus sabaeus.
The nature of data set [3]: Half life in Sprague-Dawley rat at 1 mg/kg, iv and po. The class given is ADME, organism-based. On the set-up: dose 1 mg/kg, route oral. Particulars: in vivo.
The subject of the next data set is Rattus norvegicus. In words: Volume of distribution in Sprague-Dawley rat at 1 mg/kg, iv and po. On the set-up: dose 1 mg/kg, route oral. The class given is ADME, organism-based. Particulars: in vivo.
A short description of data set [4]: Cmax in Sprague-Dawley rat at 1 mg/kg, iv and po after 30 mins. The class given is ADME, organism-based. Further details: dose 1 mg/kg, route oral. Particulars: in vivo.
A short description of data set [5]: Oral bioavailability in Sprague-Dawley rat at 1 mg/kg. Format: ADME, organism-based. Particulars: in vivo.

Broadly, the IC50 is the concentration that inhibits the measured activity by half. One may read the CC50 as the concentration at which the toxic effect on the cells reaches its halfway point. `c1ccc(-c2nn3c(NC4CCCC4)ncnc3c2-c2ccnc(NC3CCCC3)n2)cc1` showed an IC50 in data set [1] of 6400 nM. Further, in data set [2], the CC50 is > 40000 nM.
Compound `COc1ccc(-c2nn3c(NC4CCCC4)ccnc3c2-c2ccnc(NC3CCCC3)n2)cc1` displayed an IC50 in data set [1] of 2400 nM. In addition, in data set [2], the midpoint of cytotoxicity, the CC50, lay at 32000 nM.
In data set [1], `Fc1ccc(-c2nn3c(NC4CCCC4)cc(NC4CCCC4)cc3c2-c2ccnc(NC3CCCC3)n2)cc1` came in with an IC50 of 240 nM. In data set [2], the CC50 was > 40000 nM.
Turning to `CC(C)COc1ccc(-c2nn3c(NC4CCCC4)nccc3c2-c2ccnc(NC3CCCC3)n2)cc1`, in data set [1], the IC50 was 610 nM. Besides, in data set [2], the CC50 is > 40000 nM.
Compound `Fc1ccc(-c2nn3c(N4CCCC4)nccc3c2-c2ccnc(NC3CCCC3)n2)cc1` displayed an IC50 in data set [1] of 1900 nM. The CC50 in data set [2] is > 40000 nM.
In data set [1], `Oc1ccc(-c2nn3c(NC4CCCC4)nccc3c2-c2ccnc(NC3CCCC3)n2)cc1` displayed an IC50 of 4000 nM. Further, it took 27000 nM to reach half-maximal cytotoxicity in data set [2] (CC50).
`Nc1nc2c(ncn2COCCO)c(=O)[nH]1` [ACYCLOVIR] returned an IC50 in data set [1] of 390 nM. The CC50 in data set [2] was > 200000 nM.
In general, half-life refers to how long it takes for the measured level to halve. The Cmax is the peak of the concentration-time curve. As a reminder, the bioavailability is dose-corrected exposure relative to a reference, in per cent. As for `Fc1ccc(-c2nn3c(NC4CCCC4)nccc3c2-c2ccnc(NC3CCCC3)n2)cc1`, in data set [3], the half-life is 2.5 h. Further, the Vd in the data set on Rattus norvegicus stood at 1.2 L/kg. This compound also had an IC50 in data set [1] of 170 nM. In data set [4], this compound showed a Cmax of 300 nM. Also, in data set [5], the bioavailability is 24%. Further, in data set [2], the CC50 is > 40000 nM.
Turning to `Fc1ccc(-c2nn3c(NC4CCCC4)cccc3c2-c2ccnc(NC3CCCC3)n2)cc1`, in data set [1], half-maximal inhibition (IC50) was put at 260 nM. The half-maximal cytotoxic concentration (CC50) in data set [2] is > 160000 nM.
With `c1cc(-c2c(-c3ccc(OCC4CC4)cc3)nn3c(NC4CCCC4)nccc23)nc(NC2CCCC2)n1`, 690 nM corresponded to half-maximal inhibition in data set [1] (IC50). For the same compound, the CC50 in data set [2] was > 40000 nM.
Compound `Clc1cccc(-c2nn3c(NC4CCCC4)nccc3c2-c2ccnc(NC3CCCC3)n2)c1` had a half-maximal inhibitory concentration (IC50) in data set [1] of 460 nM. The CC50 in data set [2] was > 40000 nM.
In data set [1], `Clc1cccc(-c2nn3c(N4CCOCC4)nccc3c2-c2ccnc(NC3CCCC3)n2)c1` yielded an IC50 of 200 nM. Besides, the CC50 in data set [2] is > 40000 nM.
For the compound `COc1ccc(-c2nn3c(NC4CCCC4)ccnc3c2-c2ccnc(NC3CCCC3)c2)cc1`, the IC50 in data set [1] came to 600 nM. Besides, the midpoint of cytotoxicity in data set [2], the CC50, lay at 10000 nM.
`COCCOc1ccc(-c2nn3c(NC4CCCC4)nccc3c2-c2ccnc(NC3CCCC3)n2)cc1`: the IC50 in data set [1] came out at 1120 nM. In addition, the CC50 in data set [2] was > 40000 nM.
In data set [1], `c1ccc(-c2nn3c(NC4CCCC4)cccc3c2-c2ccnc(NC3CCCC3)n2)cc1` returned an IC50 of 620 nM. Also, the CC50 in data set [2] was > 40000 nM.
In the same order, the values of `COc1ccc(-c2nn3c(NC4CCCC4)cccc3c2-c2ccnc(NC3CCCC3)n2)cc1` are 220 nM and > 100000 nM.
Regarding `c1ccc(-c2nn3c(NC4CCCC4)nc(NC4CCCC4)nc3c2-c2ccnc(NC3CCCC3)c2)cc1`, inhibition in data set [1] was half-maximal at 120 nM (IC50). In addition, in data set [2], the CC50 was > 40000 nM.
Turning to `Fc1ccc(-c2nn3c(NC4CCCC4)ccnc3c2-c2ccnc(NC3CCCC3)c2)cc1`, in data set [1], the midpoint of inhibition, the IC50, lay at 1200 nM. The CC50 in data set [2] was 16000 nM.
Regarding `CCCCOc1ccc(-c2nn3c(NC4CCCC4)nccc3c2-c2ccnc(NC3CCCC3)n2)cc1`, in data set [1], the IC50 was determined as 470 nM. The CC50 in data set [2] was > 40000 nM.
For the compound `CCCOc1ccc(-c2nn3c(NC4CCCC4)nccc3c2-c2ccnc(NC3CCCC3)n2)cc1`, the midpoint of inhibition in data set [1], the IC50, lay at 540 nM. In addition, in data set [2], the CC50 is > 20000 nM.
In data set [1], `Fc1ccc(-c2nn3c(N4CCCCC4)nccc3c2-c2ccnc(NC3CCCC3)n2)cc1` came in with an IC50 of 980 nM. The CC50 in data set [2] is > 40000 nM.
As to `c1ccc(-c2nn3c(NC4CCCC4)ccnc3c2-c2ccnc(NC3CCCC3)c2)cc1`, the IC50 in data set [1] amounted to 300 nM. In addition, half-maximal cytotoxicity in data set [2] (CC50) was put at 14000 nM.
For `c1cc(NC2CCCC2)n2nc(-c3ccc(OCC4CC4)cc3)c(-c3ccnc(NC4CCCC4)n3)c2c1`, in data set [1], the IC50 is 170 nM. The CC50 in data set [2] is > 40000 nM.
As to `COc1ccc(-c2nn3c(NC4CCCC4)nccc3c2-c2ccnc(NC3CCCC3)n2)cc1`, in data set [1], the IC50 is 280 nM. The CC50 in data set [2] was > 40000 nM.
For the compound `CC(C)(C)Nc1nccc2c(-c3ccnc(NC4CCCC4)n3)c(-c3ccc(F)cc3)nn12`, the midpoint of inhibition in data set [1], the IC50, lay at 6610 nM. For the same compound, the CC50 in data set [2] was > 40000 nM.
For `COCCNc1nccc2c(-c3ccnc(NC4CCCC4)n3)c(-c3cccc(Cl)c3)nn12`, the IC50 in data set [1] was found to be 300 nM. Besides, the CC50 in data set [2] is > 40000 nM.
